In US20140357713A1, “ANTIMICROBIAL COMPOUNDS AND METHODS OF USE” (NexMed Holdings, Inc., priority 2012, published 2014):
Structures can show the parent of a compound that is named as a salt. Where two headings read alike, the source gives them in different places. Values belong to the molecule of their own block, whether it stands above or below them.

Key:
[1] = test system: Candida albicans (ATCC 90029); test: Minimum inhibitory concentration (MIC) assay, Example 33; format: cell-based; conditions: Candida albicans
Summary of the method: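 MIC read per CLSI after incubation at 35° C. Colonies in RPMI 1640 adjusted to OD530 0.08–0.13, diluted 1:50 and 1:20 to twice test density, then added 1:2 to wells holding 2-fold serial drug dilutions in RPMI 1640 (CLSI microdilution).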

[2] = test system: Escherichia coli (ATCC 25922); test: Time kill study, Example 33 (0 to 5 min); format: cell-based; conditions: 1×MIC
Summary of the method: (§1)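 Read-out: Log10 CFU/mL by colony count on agar after 24 to 48 hrs. Exposure: strain suspension and compound solution at equal volume, CLSI method, samples at 0 min, 30 sec, 1 min and 5 mins diluted in test medium before plating.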

[3] = test system: Pseudomonas aeruginosa (ATCC 27853); test: Time kill study, Example 33 (0 to 5 min); format: cell-based; conditions: 1×MIC
Summary of the method: as §1

Escherichia coli = test: Extended time kill study, Example 34 (0 to 24 h); format: cell-based
Summary of the method: (§2)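 Strain suspensions prepared as for MIC testing were mixed 1:1 with compound solution at higher multiples of MIC. Samples taken over 0 to 24 h were diluted in test medium and plated on agar, and colonies were counted after 24–48 h incubation.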

Staphylococcus aureus = test: Extended time kill study, Example 34 (0 to 24 h); format: cell-based
Summary of the method: as §2

[4] = Solubility (Sol., Table 1); format: physicochemical
[5] = test system: Staphylococcus aureus (ATCC 29213); test: Time kill study, Example 33 (0 to 5 min); format: cell-based; conditions: 1×MIC
Summary of the method: as §1

[6] = 1 min, listed as Nex-88, hydrochloride

Structure (SMILES): CCCCCCCCCCCCOC(=O)C(C)N(C)C (stereo not shown) [Nex-05, Dodecyl 2-(dimethylamino)propanoate hydrochloride]
MIC ([1]; ATCC90029, Table 19 summary): > 12.5 mg/mL | MIC ([1]; ATCC90029, read-out: MIC Candida albicans, n = 1): > 12.5 mg/mL | MIC ([1]; ATCC90029, read-out: MIC Candida albicans, n = 2): > 12.5 mg/mL | Viable counts, Escherichia coli time kill study ([2]; 0.5 min, hydrochloride): <4.0 Log10 CFU/mL | Viable counts, Escherichia coli time kill study ([2]; 0.5 min, listed as Nex-88, hydrochloride): <4.0 Log10 CFU/mL | Viable counts, Escherichia coli time kill study [2, 6]: <3.70 Log10 CFU/mL | Viable counts, Escherichia coli time kill study ([2]; 5 min, listed as Nex-88, hydrochloride): <3.52 Log10 CFU/mL | Viable counts, Pseudomonas aeruginosa time kill study [3, 6]: <3.70 Log10 CFU/mL | Viable counts, Pseudomonas aeruginosa time kill study ([3]; 5 min): <3.52 Log10 CFU/mL | Viable counts, Escherichia coli time kill study (Escherichia coli; 1 × MIC, 1 h): <1 Log10 CFU/mL | Viable counts, Escherichia coli time kill study (Escherichia coli; 1 × MIC, 2 h): <1 Log10 CFU/mL | Viable counts, Escherichia coli time kill study (Escherichia coli; 1 × MIC, 4 h): <1 Log10 CFU/mL | Viable counts, Escherichia coli time kill study (Escherichia coli; 1 × MIC, 6 h): <1 Log10 CFU/mL | Viable counts, Escherichia coli time kill study (Escherichia coli; 1 × MIC, 24 h): <1 Log10 CFU/mL | Viable counts, Escherichia coli time kill study (Escherichia coli; 1×MIC, time 0): 5.10 Log10 CFU/mL | Viable counts, Escherichia coli time kill study (Escherichia coli; 2 × MIC, 1 h): <1 Log10 CFU/mL | Viable counts, Escherichia coli time kill study (Escherichia coli; 2 × MIC, 2 h): <1 Log10 CFU/mL | Viable counts, Escherichia coli time kill study (Escherichia coli; 2 × MIC, 4 h): <1 Log10 CFU/mL | Viable counts, Escherichia coli time kill study (Escherichia coli; 2 × MIC, 6 h): <1 Log10 CFU/mL | Viable counts, Escherichia coli time kill study (Escherichia coli; 2 × MIC, 24 h): <1 Log10 CFU/mL | Viable counts, Escherichia coli time kill study (Escherichia coli; 2 × MIC, time 0): 5.16 Log10 CFU/mL | Viable counts, Escherichia coli time kill study (Escherichia coli; 4 × MIC, 1 h): <1 Log10 CFU/mL | Viable counts, Escherichia coli time kill study (Escherichia coli; 4 × MIC, 2 h): <1 Log10 CFU/mL | Viable counts, Escherichia coli time kill study (Escherichia coli; 4 × MIC, 4 h): <1 Log10 CFU/mL | Viable counts, Escherichia coli time kill study (Escherichia coli; 4 × MIC, 6 h): <1 Log10 CFU/mL | Viable counts, Escherichia coli time kill study (Escherichia coli; 4 × MIC, 24 h): <1 Log10 CFU/mL | Viable counts, Escherichia coli time kill study (Escherichia coli; 4 × MIC, time 0): 5.21 Log10 CFU/mL | Viable counts, Staphylococcus aureus time kill study (Staphylococcus aureus; 1 × MIC, 1 h): <3 Log10 CFU/mL | Viable counts, Staphylococcus aureus time kill study (Staphylococcus aureus; 1 × MIC, 2 h): <3 Log10 CFU/mL | Viable counts, Staphylococcus aureus time kill study (Staphylococcus aureus; 1 × MIC, 4 h): <3 Log10 CFU/mL | Viable counts, Staphylococcus aureus time kill study (Staphylococcus aureus; 1 × MIC, 6 h): <3 Log10 CFU/mL | Viable counts, Staphylococcus aureus time kill study (Staphylococcus aureus; 1 × MIC, 24 h): <1 Log10 CFU/mL | Viable counts, Staphylococcus aureus time kill study (Staphylococcus aureus; 1×MIC, time 0): 6.24 Log10 CFU/mL | Viable counts, Staphylococcus aureus time kill study (Staphylococcus aureus; 2 × MIC, 1 h): <3 Log10 CFU/mL | Viable counts, Staphylococcus aureus time kill study (Staphylococcus aureus; 2 × MIC, 2 h): <3 Log10 CFU/mL | Viable counts, Staphylococcus aureus time kill study (Staphylococcus aureus; 2 × MIC, 4 h): <3 Log10 CFU/mL | Viable counts, Staphylococcus aureus time kill study (Staphylococcus aureus; 2 × MIC, 6 h): <3 Log10 CFU/mL | Viable counts, Staphylococcus aureus time kill study (Staphylococcus aureus; 2 × MIC, 24 h): <1 Log10 CFU/mL | Viable counts, Staphylococcus aureus time kill study (Staphylococcus aureus; 2 × MIC, time 0): 6.25 Log10 CFU/mL | Viable counts, Staphylococcus aureus time kill study (Staphylococcus aureus; 4 × MIC, 1 h): <3 Log10 CFU/mL | Viable counts, Staphylococcus aureus time kill study (Staphylococcus aureus; 4 × MIC, 2 h): <3 Log10 CFU/mL | Viable counts, Staphylococcus aureus time kill study (Staphylococcus aureus; 4 × MIC, 4 h): <3 Log10 CFU/mL | Viable counts, Staphylococcus aureus time kill study (Staphylococcus aureus; 4 × MIC, 6 h): <3 Log10 CFU/mL | Viable counts, Staphylococcus aureus time kill study (Staphylococcus aureus; 4 × MIC, 24 h): <1 Log10 CFU/mL | Viable counts, Staphylococcus aureus time kill study (Staphylococcus aureus; 4 × MIC, time 0): 6.23 Log10 CFU/mL

Sol. [4]: 46% | MIC ([1]; ATCC90029, Table 19 summary, read-out: MIC): 12.5 mg/mL | MIC ([1]; ATCC90029, n = 1, read-out: MIC Candida albicans): 12.5 mg/mL | MIC ([1]; ATCC90029, n = 2, read-out: MIC Candida albicans): 12.5 mg/mL
Structure (SMILES): CCCCCCCCCCCCOC(=O)C(C)NC(C)C.Cl (stereo not shown) [Nex-60, Dodecyl 2-(isopropylamino)propanoate hydrochloride]
Viable counts, Escherichia coli time kill study ([2]; 0.5 min): <4.0 Log10 CFU/mL | Viable counts, Escherichia coli time kill study ([2]; 1 min): 3.7 Log10 CFU/mL | Viable counts, Escherichia coli time kill study ([2]; 5 min): <3.52 Log10 CFU/mL | Viable counts, Escherichia coli time kill study ([2]; time 0): 5.88 Log10 CFU/mL | Viable counts, Pseudomonas aeruginosa time kill study ([3]; 0.5 min): 4.6 Log10 CFU/mL | Viable counts, Pseudomonas aeruginosa time kill study ([3]; 1 min): 3.7 Log10 CFU/mL | Viable counts, Pseudomonas aeruginosa time kill study ([3]; 5 min): <3.52 Log10 CFU/mL | Viable counts, Pseudomonas aeruginosa time kill study ([3]; time 0): 5.58 Log10 CFU/mL | Viable counts, Staphylococcus aureus time kill study ([5]; 0.5 min): 6.23 Log10 CFU/mL | Viable counts, Staphylococcus aureus time kill study ([5]; 1 min): 6.25 Log10 CFU/mL | Viable counts, Staphylococcus aureus time kill study ([5]; 5 min): 6.21 Log10 CFU/mL | Viable counts, Staphylococcus aureus time kill study ([5]; time 0): 6.28 Log10 CFU/mL | Viable counts, Escherichia coli time kill study (Escherichia coli; 1 × MIC, 1 h): <1 Log10 CFU/mL | Viable counts, Escherichia coli time kill study (Escherichia coli; 1 × MIC, 2 h): <1 Log10 CFU/mL | Viable counts, Escherichia coli time kill study (Escherichia coli; 1 × MIC, 4 h): <1 Log10 CFU/mL | Viable counts, Escherichia coli time kill study (Escherichia coli; 1 × MIC, 6 h): <1 Log10 CFU/mL | Viable counts, Escherichia coli time kill study (Escherichia coli; 1 × MIC, 24 h): <1 Log10 CFU/mL | Viable counts, Escherichia coli time kill study (Escherichia coli; 1×MIC, time 0): 5.02 Log10 CFU/mL | Viable counts, Escherichia coli time kill study (Escherichia coli; 2 × MIC, 1 h): <1 Log10 CFU/mL | Viable counts, Escherichia coli time kill study (Escherichia coli; 2 × MIC, 2 h): <1 Log10 CFU/mL | Viable counts, Escherichia coli time kill study (Escherichia coli; 2 × MIC, 4 h): <1 Log10 CFU/mL | Viable counts, Escherichia coli time kill study (Escherichia coli; 2 × MIC, 6 h): <1 Log10 CFU/mL | Viable counts, Escherichia coli time kill study (Escherichia coli; 2 × MIC, 24 h): <1 Log10 CFU/mL | Viable counts, Escherichia coli time kill study (Escherichia coli; 2 × MIC, time 0): 5.14 Log10 CFU/mL | Viable counts, Escherichia coli time kill study (Escherichia coli; 4 × MIC, 1 h): <1 Log10 CFU/mL | Viable counts, Escherichia coli time kill study (Escherichia coli; 4 × MIC, 2 h): <1 Log10 CFU/mL | Viable counts, Escherichia coli time kill study (Escherichia coli; 4 × MIC, 4 h): <1 Log10 CFU/mL | Viable counts, Escherichia coli time kill study (Escherichia coli; 4 × MIC, 6 h): <1 Log10 CFU/mL | Viable counts, Escherichia coli time kill study (Escherichia coli; 4 × MIC, 24 h): <1 Log10 CFU/mL | Viable counts, Escherichia coli time kill study (Escherichia coli; 4 × MIC, time 0): 5.07 Log10 CFU/mL | Viable counts, Staphylococcus aureus time kill study (Staphylococcus aureus; 1 × MIC, 1 h): 6.23 Log10 CFU/mL | Viable counts, Staphylococcus aureus time kill study (Staphylococcus aureus; 1 × MIC, 2 h): 6.24 Log10 CFU/mL | Viable counts, Staphylococcus aureus time kill study (Staphylococcus aureus; 1 × MIC, 4 h): 6.16 Log10 CFU/mL | Viable counts, Staphylococcus aureus time kill study (Staphylococcus aureus; 1 × MIC, 6 h): 5.97 Log10 CFU/mL | Viable counts, Staphylococcus aureus time kill study (Staphylococcus aureus; 1 × MIC, 24 h): 6.57 Log10 CFU/mL | Viable counts, Staphylococcus aureus time kill study (Staphylococcus aureus; 1×MIC, time 0): 6.22 Log10 CFU/mL | Viable counts, Staphylococcus aureus time kill study (Staphylococcus aureus; 2 × MIC, 1 h): <3 Log10 CFU/mL | Viable counts, Staphylococcus aureus time kill study (Staphylococcus aureus; 2 × MIC, 2 h): <3 Log10 CFU/mL | Viable counts, Staphylococcus aureus time kill study (Staphylococcus aureus; 2 × MIC, 4 h): <3 Log10 CFU/mL | Viable counts, Staphylococcus aureus time kill study (Staphylococcus aureus; 2 × MIC, 6 h): <3 Log10 CFU/mL | Viable counts, Staphylococcus aureus time kill study (Staphylococcus aureus; 2 × MIC, 24 h): <1 Log10 CFU/mL | Viable counts, Staphylococcus aureus time kill study (Staphylococcus aureus; 2 × MIC, time 0): 6.20 Log10 CFU/mL | Viable counts, Staphylococcus aureus time kill study (Staphylococcus aureus; 4 × MIC, 1 h): <3 Log10 CFU/mL | Viable counts, Staphylococcus aureus time kill study (Staphylococcus aureus; 4 × MIC, 2 h): <3 Log10 CFU/mL | Viable counts, Staphylococcus aureus time kill study (Staphylococcus aureus; 4 × MIC, 4 h): <3 Log10 CFU/mL | Viable counts, Staphylococcus aureus time kill study (Staphylococcus aureus; 4 × MIC, 6 h): <3 Log10 CFU/mL | Viable counts, Staphylococcus aureus time kill study (Staphylococcus aureus; 4 × MIC, 24 h): <1 Log10 CFU/mL | Viable counts, Staphylococcus aureus time kill study (Staphylococcus aureus; 4 × MIC, time 0): 6.21 Log10 CFU/mL
